# Measurements: patent publication US9566265B2, “Carbazole compounds and therapeutic uses of the compounds” (Incuron, LLC, priority 2008, dated 2017)
# Where two headings read alike, the source gives them in different places.
# Experiments:
# Bloodstream T. brucei = experiment: T. brucei bloodstream form in vitro killing; type: cell-based, Trypanosoma brucei
# Procedure: Preliminary T. brucei inactivation experiments were performed in vitro. The life cycle of T. brucei involves a “procyclic” developmental stage in a tsetse fly, and a “bloodstream” form in humans. All studies were performed with the bloodstream stage of the parasite, because it is the disease-causing developmental stage.
# Suramin, a conventional anti-HAT drug, was used as a positive control.
# Bloodstream T. brucei was seeded (3×10^3 cells/mL) in 24-well (500 uL of the media per well) plate. […] Control cultures received equal volumes of DMSO.
# [1] = tested on: HCT-116, DLD1, Caki1 and MDA-MB-231 tumors; experiment: various human tumour xenografts sc; type: in vivo, nude or SCID mice; conditions: tumor cells inoculated as a cell suspension
# Procedure: (§2) In this study, the antitumor effect and toxicity of the three carbazoles against HCT-8 and HT29 colon cancer tumors were compared with treatment beginning when the tumor size reached 150-200 mg (about 7 days after tumor transplantation).
# [2] = tested on: Af293 strain of A. fumigatus; experiment: XTT viability assay; type: cell-based, Aspergillus fumigatus
# Procedure: This strain was selected because it is one of the best characterized strains and was the strain used for sequencing the A. fumigatus genome. XTT viability assay is based on the reduction of the tetrazolium salt (XTT) in the presence of menadione as an electron-coupling agent. There is a relationship between the number of viable fungi and the amount of XTT reduction (16).
# The same methods previously described in performing the XTT assay (17) were used. Af293 conidia were plated on Sabouraud BHI slants with chloramphenicol and gentamicin (Becton Dickinson, Md.), incubated for 7 to 10 days at room temperature, and harvested by washing the slant with 10 ml of 0.05% Tween 20 in normal saline (NS). The conidial suspension then was passed through a 100-μm filter, counted on a hemacytometer, and diluted to 2.0×10^6 CFU/ml. Conidia then were diluted 1:50 in MOPS (morpholinepropanesulfonic acid)-buffered RPMI (pH 7.0). A stock solution of Example 15 dissolved in DMSO was used. […] Following the addition of drug-containing medium to each well, the conidial suspension (100 μl) was added (t=0 h). Control wells contained conidia, medium, and vehicle without drug. Blank wells consisted of medium only without conidia. […] One hundred microliters of the supernatant was transferred to a new plate, and the optical density at 450 nm (OD450) was determined by using a Labsystems Multiskan Plus plate reader. […]
# [3] = tested on: human HCT-8 ileocecal adenocarcinoma xenografts
# Procedure: as §2
# Eight to twelve-week-old female athymic nude mice (nu/nu, body weight 22-25 g) were obtained from Harlan Sprague Dawley Inc. (Indianapolis, Ind.) and maintained at five mice/cage with water and food ad libitum according to an institutionally approved animal protocol.
# Human ileocecal adenocarcinoma HCT-8 and colon adenocarcinoma HT-29 xenografts were used. The xenografts were initially established by injecting s.c 10^6 cultured cells and tumors were passed several generations by transplanting about 50 mg non-necrotic tumor (2-3 pieces) via a trocar from the passage tumors when the tumors reach to 1-1.5 g.
# Treatment was initiated 7 days after tumor transplantation when the tumors reached 150-200 mg. The mice in the control group received the vehicle (0.2% hydroxypropylmethylcellulose) at 200 μl per 20 g mouse body weight (same as the treatment groups). Five mice were used for each experimental group with 10 tumors (1 tumor each in the left and right side flanks).
# Two axes (mm) of tumor (L, longest axis; W, shortest axis) were measured with the aid of a Vernier caliper. Tumor weight (mg) was estimated using a formula: tumor weight=½ (L×W2). Tumor measurements were taken daily at the same time as drug treatment and 3-4 times a week of post therapy.
# The kinetics of drug-induced toxicities (body weight loss, diarrhea, and lethality) were determined daily for the first 10 days after treatment and every two days thereafter.
# Antitumor activity was assessed by maximum tumor growth inhibition (MTRI) which is the mean tumor weight of treated group (MTWTG) compared with untreated control group (MTWCG) at the same time point (MTRI=MTWTG−MTWCG)÷MTWCG×100%). The tumor doubling time (TDT) was defined as the mean time for the tumor to reach twice its initial weight. Tumor response was expressed as partial tumor response (PR) when tumor weight was reduced at least 50% of the initial tumor size and complete tumor response (CR) was defined as the inability to detect tumor upon palpation at the initial site of tumor appearance.
# C. albicans = experiment: microbe, parasite or virus in culture; type: cell-based; conditions: Candida albicans
# Excerpt: Candida spp. strains: 20 Candida spp. clinical isolates and one laboratory control strain (C. albicans SC5314) was used in the study. In the collection were included:
# 5 C. albicans isolates, two wild type strain (SC5314 and ATCC 36082), one echinocandin resistant isolate (M205) (6), and two fluconazole resistant clinical isolates (3795 and 3184) (7).
# C. lipolytica = experiment: in vitro susceptibility CLSI M27A3, MIC; type: cell-based; conditions: Yarrowia lipolytica, strain M159, WT, Susceptible
# Excerpt: (§1) Other Candida spp. and genera: 1 C. rugosa (M83), 1 C. lipolytica (M159), C. lusitaniae (200450), 1 Cryptococcus neoformans (499), and 1 Debaryomyces hansenii.
# C. lusitaniae = experiment: in vitro susceptibility CLSI M27A3, MIC; type: cell-based; conditions: Clavispora lusitaniae, strain 200450, WT, Susceptible
# Excerpt: as §1
# C. rugosa = experiment: in vitro susceptibility CLSI M27A3, MIC; type: cell-based; conditions: Diutina rugosa, strain M83, WT, Susceptible
# Excerpt: as §1
# Cryptococcus neoformans = experiment: in vitro susceptibility CLSI M27A3, MIC; type: cell-based; conditions: strain 499, WT, Susceptible
# Excerpt: as §1
# Debaryomyces hansenii = experiment: in vitro susceptibility CLSI M27A3, MIC; type: cell-based; conditions: strain 20124, WT, Susceptible
# Excerpt: as §1
# [4] = tested on: Caki1 human renal cell carcinoma cells; experiment: Caki1 renal cell carcinoma xenograft efficacy test
# Procedure: In an efficacy test using these three compounds, athymic nude mice were inoculated subcutaneously with a suspension of Caki1 human renal cell carcinoma cells into both rear flanks. When at least one tumor in a mouse reached 20-50 mm^3, treatment was commenced. […] As a positive control, one group was treated with 40 mg/kg Sunitinib, an approved drug for the treatment of renal cell carcinoma. Treatment was given for 4 weeks on a 5 day on/2 day off schedule. After treatment was completed, mice were monitored for an additional 4 weeks to determine how quickly tumor growth returned to normal.
smiles,measurement,setting,value
CCN(CC)CCn1c2ccc3c(c2c2c4c(ccc21)C(=O)CC4)CCC3=O [Example 15],elimination of parasites,"Bloodstream T. brucei; 48 hrs, up to 200 nM Example 7, 20 nM Example 13, 3 nM Example 15",completely eliminated T. brucei
same,IC50,"Bloodstream T. brucei; Trypanosoma brucei, read-out: IC50 (concentration that killed 50% of the parasites), bloodstream stage, 48 hrs of culture",~0.5 nM
same,antitumor efficacy,[1],antitumor efficacy
same,IC50,"[2]; Aspergillus fumigatus, XTT assay at 24 h",~2500 nM
same,concentration for complete suppression of fungal growth,[2]; visual inspection of the wells,greater than 12.5 μM
same,Antitumor Activity MTGI (%),"[3]; p.o. at MTD, 5 days on/2 days off per week, Example 15 5, Example 7 30, Example 13 25 mg/kg/d",40.0 ± 18.6%
same,Toxicity (%) lethality,[3]; same,0%
same,CR (%),"[3]; same, complete tumor response",0%
same,Toxicity (%) MWL,"[3]; same, maximum weight loss of pretreatment body weight",10.0 ± 3.8%
same,PR (%),"[3]; same, partial tumor response",0%
same,Antitumor Activity TDT,"[3]; same, tumor doubling time",7.5 ± 3.5 days
same,delay of tumor growth compared to the vehicle control (double time 4.8 days),[3]; text b677,57%
same,MIC,"C. albicans; read-out: MIC* (48 hs), strain 3184, CDR1 overexpression, Fluconazole- resistant",0.66 µM
same,MIC,"C. albicans; strain ATCC36082, WT, Susceptible, read-out: MIC* (24 hs)",0.04 µM
same,MIC,"C. albicans; strain ATCC36082, WT, Susceptible, read-out: MIC* (48 hs)",0.04 µM
same,MIC,"C. albicans; strain SC5314, WT, Susceptible, read-out: MIC* (24 hs)",0.04 µM
same,MIC,"C. albicans; strain SC5314, WT, Susceptible, read-out: MIC* (48 hs)",0.08 µM
same,MIC,C. lipolytica; read-out: MIC* (24 hs),0.02 µM
same,MIC,C. lipolytica; read-out: MIC* (48 hs),0.08 µM
same,MIC,C. lusitaniae; read-out: MIC* (24 hs),0.04 µM
same,MIC,C. lusitaniae; read-out: MIC* (48 hs),0.16 µM
same,MIC,C. rugosa; read-out: MIC* (24 hs),0.16 µM
same,MIC,C. rugosa; read-out: MIC* (48 hs),0.66 µM
same,MIC,Cryptococcus neoformans; read-out: MIC* (24 hs),0.02 µM
same,MIC,Cryptococcus neoformans; read-out: MIC* (48 hs),0.08 µM
same,MIC,Debaryomyces hansenii; read-out: MIC* (24 hs),0.16 µM
same,MIC,Debaryomyces hansenii; read-out: MIC* (48 hs),0.16 µM
same,weight loss,"[4]; 5 mg/kg oral, short-term",10-15%
same,tumor growth inhibition compared to the vehicle control,"[4]; Day 24 (end of treatment), oral gavage 5 day on/2 day off, Example 7 30, Example 15 5, Example 13 25, Sunitinib 40 mg/kg",50%
